From PMC3160846 (PLoS ONE, 2011)
Read-outs that look alike come from different tables or passages of the source.

Experiments:
[1] = test system: various human cancer cell lines; assay: Clonogenic assay, panel of cancer cell lines; type: cell-based; details: for IC50: Homo sapiens
Protocol: Human lung adenocarcinoma A549 cells and NTUB1 bladder cancer cells were maintained in RPMI supplied with 10% fetal bovine serum. KB-derived MDR1-expressing cell lines (i.e. KB-VIN10 and KB-S15) and NTUB1-dervided MDR1-expressing cell line (i.e. NTU0.017) were maintained in growth medium supplemented with 10 nM vincristine, 15 nM and 17 nM paclitaxel respectively. […] KB-derived MRP1-expressing cell line, KB-7D, was maintained in growth medium supplemented with 7 µM VP-16.
(§1) Two hundred cells in logarithmic growth phase were seeded in a 6-well plate. The cells were exposed to various concentrations of the test drugs for a three-generation period. At the end of the incubation period, cells were fixed and stained with 50% ethanol containing 0.5% methylene blue for 30 min. The plates were washed five times with water and allowed to air-dry. Colonies were countered manually. The IC50 value resulting from 50% inhibition of cell growth was calculated graphically as a comparison with the growth of the control group. Each value represents the average of at least three independent experiments run in triplicates.

[2] = test system: OECM-1 cells; assay: Clonogenic assay, OECM-1; type: cell-based, Human; details: Homo sapiens, OECM1; OECM-1, oral, p53 mutant, MDR1 negative; read-out: IC50, anti-proliferative activity
Protocol: (§2) Human lung adenocarcinoma A549 cells and NTUB1 bladder cancer cells were maintained in RPMI supplied with 10% fetal bovine serum. […] KB-derived MRP1-expressing cell line, KB-7D, was maintained in growth medium supplemented with 7 µM VP-16.
as §1, with “The IC50 value resulting from 50% inhibition of cell growth was calculated graphically as a comparison with the growth of the control group.” left out

[3] = test system: HONE-1 cells; assay: Western blot of Histone H3 phosphorylation and cyclin B1, HONE-1; type: cell-based, Human; details: HONE-1, 48 h
Protocol: Cells were lysed with ice-cold lysis buffer (10 mM Tris, 1 mM EDTA, 1 mM DTT, 60 mM KCl, 0.5% NP-40 and protease inhibitors). […] The resolved proteins were electrophoretically transferred to PVDF membranes (Amersham Life Science, Amersham, U.K.) for Western blot analysis. The membranes were blocked with 5% non-fat milk at room temperature for two hours, washed twice with TBST (1% Tween) and then incubated with either anti-phosphorylated Aurora-A/-B/-C kinase antibody (#2914S, Cell Signaling Technology, Danvers, MA), anti-Aurora-A and -B kinase antibody (#ab1287 and #ab2254, Abcam, Cambridge, MA), anti-phosphorylated Histone H3 antibody (#9701, Cell Signaling Technology, Danvers, MA), anti-Histone H3 antibody (#9715, Cell Signaling Technology, Danvers, MA), anti-Cyclin B1 antibody or anti-Actin antibody (#sc-245 and #sc-130065, Santa Cruz Biotechnology, Santa Cruz, CA) overnight at 4°C. Membranes were washed twice with TBST then subsequently incubated with a horseradish peroxidase-conjugated secondary antibody (Santa Cruz Biotechnology, Santa Cruz, CA) for 1 hour at room temperature. Immunoreactivity was detected by Enhanced Chemiluminescence (Amersham International, Buckingham, U.K.) and autoradiography. Experiments were repeated independently at least two times.

[4] = test system: KB cells; assay: Autophagy (LC3 conversion, Western blot), KB; type: cell-based, Human; details: 48 h or 72 h, full serum
Protocol: KB cells were treated with either DMSO (negative control) or BPR1K653 (48 h or 72 h) under full serum conditions. Cells cultured drug-free under reduced serum conditions were used as a positive control. Expression of various proteins was determined by Western blotting. The level of conversion of LC3-I to LC3-II provides an indicator of autophagic activity. (TIF) Click here for additional data file.

[5] = target: T1, FLT3 (Homo sapiens, UniProt P36888); assay: Kinase-Glo inhibition assay, FLT3; type: biochemical
T1 construct: FLT3 kinase catalytic domain (residues Y567∼S993); made in house; host or cells: Sf9 insect cells
T1 sequence (P36888 567-993): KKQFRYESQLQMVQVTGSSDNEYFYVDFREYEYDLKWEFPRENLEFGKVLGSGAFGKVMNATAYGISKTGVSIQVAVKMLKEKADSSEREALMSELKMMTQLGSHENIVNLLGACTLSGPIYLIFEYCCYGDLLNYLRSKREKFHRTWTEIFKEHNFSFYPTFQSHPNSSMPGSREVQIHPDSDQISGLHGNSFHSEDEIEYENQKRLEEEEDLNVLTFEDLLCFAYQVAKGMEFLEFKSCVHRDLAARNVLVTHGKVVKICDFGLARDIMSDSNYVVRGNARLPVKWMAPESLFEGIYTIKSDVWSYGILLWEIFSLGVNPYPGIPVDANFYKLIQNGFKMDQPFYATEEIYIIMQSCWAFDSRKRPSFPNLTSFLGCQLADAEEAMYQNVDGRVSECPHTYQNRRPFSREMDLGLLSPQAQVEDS
Protocol: FLT3 – GST-tagged FLT3-KDWT containing the FLT3 kinase catalytic domain (residues Y567∼S993) were expressed in Sf9 insect cells. The FLT3WT Kinase-Glo assays were carried out in 96-well plates at 30°C for 4 h with the tested compound.
(§3) Composition of the reaction buffers used in different kinase inhibitory assays is described in Figure S3.
75 ng GST-FLT3-KDWT proteins, 25 mM HEPES, pH 7.4, 4 mM MnCl2, 10 mM MgCl2, 2mM DTT, 0.02% Triton X-100, 0.1 mg/ml bovine serum albumin, 25 μM Her2 peptide substrate, 0.5 mM Na3VO4, and 1 μM ATP.

[6] = test system: A549 cells; assay: Clonogenic assay, A549; type: cell-based, Human; details: Homo sapiens; A549, lung, p53 wild-type, MDR1 negative; read-out: IC50, anti-proliferative activity
Protocol: as §2
as §1, with “The IC50 value resulting from 50% inhibition of cell growth was calculated graphically as a comparison with the growth of the control group.” left out

[7] = test system: HONE-1 cells; assay: Endo-replication (polyploidy), microscopy and flow cytometry, HONE-1; type: cell-based, Human; details: HONE-1, 48 h
Protocol: Cell cycle progression was monitored using flow cytometry. After drug treatment, cells were trypsinized, washed with PBS and fixed in 80% ethanol at −20°C for 1 h. The fixed cells were stained with propidium iodide (containing RNase) at room temperature in the dark for 20 min. The DNA content was determined by a fluorescence-activated cell sorting IV flow cytometer (BD Biosciences, Franklin Lakes, NJ). For each analysis, 10,000 cells were counted and the percentage of cells in each phase was calculated using the ModFit LT software (Verity Software House, Topsham, ME). Experiments were repeated independently at least three times.

[8] = target: T2, ALK (Homo sapiens, UniProt Q9UM73); assay: Kinase inhibition assay, ALK; type: biochemical
T2 construct: His-tagged ALK (residues V1058-P1620) containing kinase domain; His; made in house; host or cells: Sf9 insect cells
T2 sequence (Q9UM73 1058-1620): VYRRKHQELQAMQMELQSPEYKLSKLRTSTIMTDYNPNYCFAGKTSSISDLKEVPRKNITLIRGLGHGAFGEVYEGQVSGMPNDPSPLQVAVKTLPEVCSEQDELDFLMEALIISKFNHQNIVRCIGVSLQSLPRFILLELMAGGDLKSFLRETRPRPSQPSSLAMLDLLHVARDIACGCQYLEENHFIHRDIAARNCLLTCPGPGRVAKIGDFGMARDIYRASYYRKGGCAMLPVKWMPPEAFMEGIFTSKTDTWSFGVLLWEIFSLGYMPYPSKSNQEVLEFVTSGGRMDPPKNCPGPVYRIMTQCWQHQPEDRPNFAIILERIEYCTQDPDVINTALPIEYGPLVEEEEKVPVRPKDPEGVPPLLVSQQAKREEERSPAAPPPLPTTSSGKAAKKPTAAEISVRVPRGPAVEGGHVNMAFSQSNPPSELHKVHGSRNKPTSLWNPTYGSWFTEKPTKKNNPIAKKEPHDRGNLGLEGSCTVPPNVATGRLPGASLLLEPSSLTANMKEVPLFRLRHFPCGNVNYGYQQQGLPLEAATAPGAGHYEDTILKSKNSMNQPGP
Protocol: ALK – The recombinant His-tagged ALK (residues V1058-P1620) containing kinase domain was expressed in Sf9 insect cells. The kinase assay was carried out in 96-well plates with the tested compound at 30°C for 120 min.
as §3
25 mM HEPES pH 7.4, 10 mM MgCl2, 4 mM MnCl2, 0.5 mM Na3VO4, 2 mM DTT, 0.02% Triton X100, 0.01% BSA, 1 μM ATP, 2 μM polyGlu4:Tyr peptide, 50~100 ng recombinant ALK.

IC50 ([1]; A549, HONE-1, OECM-1, KB, HT29, NTUB1, MV4-11, IM9, read-out: IC50 against various types of cancer cells): < 500 nM
IC50 ([1]; read-out: IC50 in all tested p53-wildtype/-negative/-mutant cancer cell lines): < 20 nM
IC50 [5]: > 10 µM
IC50 [6]: 9 nM
IC50 [8]: > 10 µM
Structure (SMILES): CN(C)Cc1ccccc1NC(=O)Nc1ccc(CCNc2ncnc3oc(-c4ccccc4)c(Cl)c23)cc1 [BPR1K653]
effect of verapamil treatment on sensitivity ([1]; MDR-negative and MDR1-expressing cancer cells, verapamil 10 µM, data not shown): could not further increase the sensitivity to BPR1K653
IC50 [2]: 135 ± 10 nM
phosphorylation of Histone H3 and expression of cyclin B1 [3]: decreased
induction of autophagy [4]: not autophagy
formation of polyploidy (populations >4N) [7]: promoted the formation of polyploidy
